Assay results as given in the CheMixHub viscosity set.
± gives the uncertainty stated by the source.

Experiment: xn = mol fraction of the nth substance listed

Compound: CCCCCCCCCCCCCC[P+](CCCCCC)(CCCCCC)CCCCCC.c1ccc2[n-]cnc2c1 + O
- viscosity (298.15 K, 100 kPa, x2 = 0.759): 207 ± 7 mPa·s

Compound: CCCCCCCCCCCC(=O)OCC + CCCO
- viscosity (293.15 K, 101.33 kPa, x2 = 0.1001): 3.214 ± 0.13 mPa·s
- viscosity (293.15 K, 101.33 kPa, x2 = 0.2003): 3.059 ± 0.12 mPa·s
- viscosity (293.15 K, 101.33 kPa, x2 = 0.3): 2.924 ± 0.12 mPa·s
- viscosity (293.15 K, 101.33 kPa, x2 = 0.3999): 2.798 ± 0.12 mPa·s
- viscosity (293.15 K, 101.33 kPa, x2 = 0.5): 2.671 ± 0.11 mPa·s
- viscosity (293.15 K, 101.33 kPa, x2 = 0.5999): 2.547 ± 0.1 mPa·s
- viscosity (293.15 K, 101.33 kPa, x2 = 0.7): 2.426 ± 0.099 mPa·s
- viscosity (293.15 K, 101.33 kPa, x2 = 0.8): 2.307 ± 0.095 mPa·s
- viscosity (293.15 K, 101.33 kPa, x2 = 0.9): 2.215 ± 0.091 mPa·s
- viscosity (298.15 K, 101.33 kPa, x2 = 0.1001): 2.875 ± 0.12 mPa·s
- viscosity (298.15 K, 101.33 kPa, x2 = 0.2003): 2.742 ± 0.11 mPa·s
- viscosity (298.15 K, 101.33 kPa, x2 = 0.3): 2.62 ± 0.11 mPa·s
- viscosity (298.15 K, 101.33 kPa, x2 = 0.3999): 2.504 ± 0.1 mPa·s
- viscosity (298.15 K, 101.33 kPa, x2 = 0.5): 2.398 ± 0.098 mPa·s
- viscosity (298.15 K, 101.33 kPa, x2 = 0.5999): 2.286 ± 0.094 mPa·s
- viscosity (298.15 K, 101.33 kPa, x2 = 0.7): 2.175 ± 0.089 mPa·s
- viscosity (298.15 K, 101.33 kPa, x2 = 0.8): 2.078 ± 0.085 mPa·s
- viscosity (298.15 K, 101.33 kPa, x2 = 0.9): 1.997 ± 0.082 mPa·s
- viscosity (303.15 K, 101.33 kPa, x2 = 0.1001): 2.579 ± 0.11 mPa·s
- viscosity (303.15 K, 101.33 kPa, x2 = 0.2003): 2.464 ± 0.1 mPa·s
- viscosity (303.15 K, 101.33 kPa, x2 = 0.3): 2.353 ± 0.096 mPa·s
- viscosity (303.15 K, 101.33 kPa, x2 = 0.3999): 2.252 ± 0.092 mPa·s
- viscosity (303.15 K, 101.33 kPa, x2 = 0.5): 2.15 ± 0.088 mPa·s
- viscosity (303.15 K, 101.33 kPa, x2 = 0.5999): 2.052 ± 0.084 mPa·s
- viscosity (303.15 K, 101.33 kPa, x2 = 0.7): 1.956 ± 0.08 mPa·s
- viscosity (303.15 K, 101.33 kPa, x2 = 0.8): 1.869 ± 0.077 mPa·s
- viscosity (303.15 K, 101.33 kPa, x2 = 0.9): 1.786 ± 0.073 mPa·s
- viscosity (308.15 K, 101.33 kPa, x2 = 0.1001): 2.32 ± 0.095 mPa·s
- viscosity (308.15 K, 101.33 kPa, x2 = 0.2003): 2.218 ± 0.091 mPa·s
- viscosity (308.15 K, 101.33 kPa, x2 = 0.3): 2.12 ± 0.087 mPa·s
- viscosity (308.15 K, 101.33 kPa, x2 = 0.3999): 2.025 ± 0.083 mPa·s
- viscosity (308.15 K, 101.33 kPa, x2 = 0.5): 1.936 ± 0.079 mPa·s
- viscosity (308.15 K, 101.33 kPa, x2 = 0.5999): 1.845 ± 0.076 mPa·s
- viscosity (308.15 K, 101.33 kPa, x2 = 0.7): 1.756 ± 0.072 mPa·s
- viscosity (308.15 K, 101.33 kPa, x2 = 0.8): 1.674 ± 0.069 mPa·s
- viscosity (308.15 K, 101.33 kPa, x2 = 0.9): 1.6 ± 0.066 mPa·s
- viscosity (313.15 K, 101.33 kPa, x2 = 0.1001): 2.108 ± 0.086 mPa·s
- viscosity (313.15 K, 101.33 kPa, x2 = 0.2003): 2.013 ± 0.082 mPa·s
- viscosity (313.15 K, 101.33 kPa, x2 = 0.3): 1.919 ± 0.079 mPa·s
- viscosity (313.15 K, 101.33 kPa, x2 = 0.3999): 1.833 ± 0.075 mPa·s
- viscosity (313.15 K, 101.33 kPa, x2 = 0.5): 1.749 ± 0.072 mPa·s
- viscosity (313.15 K, 101.33 kPa, x2 = 0.5999): 1.669 ± 0.068 mPa·s
- viscosity (313.15 K, 101.33 kPa, x2 = 0.7): 1.59 ± 0.065 mPa·s
- viscosity (313.15 K, 101.33 kPa, x2 = 0.8): 1.513 ± 0.062 mPa·s
- viscosity (313.15 K, 101.33 kPa, x2 = 0.9): 1.44 ± 0.059 mPa·s
- viscosity (318.15 K, 101.33 kPa, x2 = 0.1001): 1.935 ± 0.079 mPa·s
- viscosity (318.15 K, 101.33 kPa, x2 = 0.2003): 1.849 ± 0.076 mPa·s
- viscosity (318.15 K, 101.33 kPa, x2 = 0.3): 1.767 ± 0.072 mPa·s
- viscosity (318.15 K, 101.33 kPa, x2 = 0.3999): 1.688 ± 0.069 mPa·s
- viscosity (318.15 K, 101.33 kPa, x2 = 0.5): 1.609 ± 0.066 mPa·s
- viscosity (318.15 K, 101.33 kPa, x2 = 0.5999): 1.531 ± 0.063 mPa·s
- viscosity (318.15 K, 101.33 kPa, x2 = 0.7): 1.454 ± 0.06 mPa·s
- viscosity (318.15 K, 101.33 kPa, x2 = 0.8): 1.381 ± 0.057 mPa·s
- viscosity (318.15 K, 101.33 kPa, x2 = 0.9): 1.315 ± 0.054 mPa·s
- viscosity (323.15 K, 101.33 kPa, x2 = 0.1001): 1.748 ± 0.072 mPa·s
- viscosity (323.15 K, 101.33 kPa, x2 = 0.2003): 1.67 ± 0.068 mPa·s
- viscosity (323.15 K, 101.33 kPa, x2 = 0.3): 1.595 ± 0.065 mPa·s
- viscosity (323.15 K, 101.33 kPa, x2 = 0.3999): 1.522 ± 0.062 mPa·s
- viscosity (323.15 K, 101.33 kPa, x2 = 0.5): 1.451 ± 0.059 mPa·s
- viscosity (323.15 K, 101.33 kPa, x2 = 0.5999): 1.382 ± 0.057 mPa·s
- viscosity (323.15 K, 101.33 kPa, x2 = 0.7): 1.315 ± 0.054 mPa·s
- viscosity (323.15 K, 101.33 kPa, x2 = 0.8): 1.251 ± 0.051 mPa·s
- viscosity (323.15 K, 101.33 kPa, x2 = 0.9): 1.188 ± 0.049 mPa·s
